# Experimental data: patent US20250382261A1 (The Broad Institute, Inc., priority 2021, published 2025)
# How the values were obtained:
# [1] = test system: A. baumannii; assay: Fold reduction of antibiotic MIC at fixed adjuvant concentration; type: cell-based; conditions: pentamidine or P35 at 50 μg/mL
# Protocol: Bacterial strains and culture conditions. The following bacterial strains were used within this study; A. baumannii (ATCC 17978), K. pneumoniae (ATCC 43816), K. pneumoniae (ATCC 43816, expressing pGDP2:mcr-1), P. aeruginosa (PA01). Bacterial growth was in cation-adjusted Mueller-Hinton broth (MHB) at 37° C., and inoculum was prepared according to CLSI protocol (CLSI 2015).
# Potentiation assays. Checkerboard analyses were conducted with each drug serially diluted at eight concentrations to create an 8×8 matrix. At least two biological replicates were done for each combination, and the means were used for FIC calculation. The FIC for each drug was calculated by dividing the concentration of the drug in the presence of codrug in a combination for a well showing <10% growth by the MIC for that drug alone. The FIC index (FICI) is the sum of the two FICs, with an FIC index≤0.5 deemed synergistic.
# [2] = test system: A. baumannii (ATCC 17978); assay: Checkerboard potentiation assay with novobiocin; type: cell-based
# [3] = test system: LPS from E. coli EH100; assay: BODIPY-Cadaverine LPS displacement assay; type: binding; conditions: BODIPY-cadaverine displacement from E. coli EH100 LPS
# [4] = in vivo; conditions: female, C57BL/6, mouse, in vivo, iv, 1 mg/kg
# Protocol: Plasma samples were taken from 3 mice per time point (5, 15, 30 min; 1, 2, 4, 6 and 8 h post-dose). An aliquot of 2 μL sample was protein precipitated with 60 μL methanol, the mixture was vortex-mixed well and centrifuged at 13000 rpm for 10 min at 4° C. 2 μL supernatant was injected for LC-MS/MS analysis. The mean plasma concentration and the standard deviation from all 3 animals within each time point were calculated. PK parameters were calculated with a non-compartmental analysis. The mean plasma concentrations from all 3 mice at each time point were used in the calculations.
# [5] = Solubility at pH 7.4; type: physicochemical; conditions: pH 7.4, aqueous buffer, thermodynamic from solid; read-out: Kinetic solubility (μM @ pH 7.4)
# Protocol: Thermodynamic solubility. P35 in solution at pH 7.4 was incubated at ambient temperature overnight with stirring using a vial roller system. The saturation of the solution was determined using HPLC-UV. This assay was performed in duplicate by Cyprotex Ltd.
# [6] = test system: HepG2 cells; conditions: human, 72 h, 75 µM
# [7] = test system: K. pneumoniae (ATCC 43816, expressing pGDP2:mcr-1); assay: Checkerboard potentiation assay with novobiocin, mcr-1 strain; type: cell-based; conditions: mcr-1 expressing K. pneumoniae
# [8] = In vitro metabolic stability, mouse; type: in vitro ADME; conditions: read-out: In vitro metabolic stability (t1/2, min), mouse
# [9] = test system: A. baumannii ATCC 17978; assay: Systemic A. baumannii murine infection model; type: in vivo, mouse
# Protocol: Mouse infection models. Animal experiments were conducted according to guidelines set by the Canadian Council on Animal Care using protocols approved by the Animal Review Ethics Board at McMaster University under Animal Use Protocol #20-12-43. Before infection, mice were relocated at random from a housing cage to treatment or control cages. No animals were excluded from analyses, and blinding was considered unnecessary. Seven- to nine-week-old female C57BL/6 mice (Charles River) were infected intraperitoneally with ˜2×10^6 CFU of A. baumannii ATCC 17978, with 5% porcine mucin (Sigma-Aldrich). Infections were allowed to establish for 2 h, and treatments were administered intraperitoneally. For the survival study, the clinical endpoint was determined using a five-point body condition score analyzing weight loss, decrease in body temperature, respiratory distress, hampered mobility and hunched posture. Experimental endpoint was defined as five days post-infection for mice not reaching clinical endpoint. For CFU/mL enumeration, animals were infected as described above and euthanized 6 h post-infection, and blood was collected into sterile 2 ml heparinized tubes (BD Scientific) serially diluted in PBS and plated onto solid LB. Plates were incubated overnight at 37° C., and colonies were quantified to determine bacterial load.
# This was directly compared to the activity of P35 and P36 in this model (all administered at 10 mg/kg) in combination with novobiocin (50 mg/kg).
# For this experiment the same A. baumannii infection model was used, however, endpoint was defined as 6 h post-infection, at which point blood was collected for CFU/mL enumeration (FIG. 2b).
structure (smiles),measurement,setting,value
N=C(N)c1ccc(OCCN(CCOc2ccc(C(=N)N)cc2)c2ccccc2)cc1 [Analog P35],"Average Fold-reduction in MIC, Ampicillin",[1]; MIC of ampicillin in A. baumannii,1 fold
same,"Average Fold-reduction in MIC, Bacitracin",[1]; MIC of bacitracin in A. baumannii,2 fold
same,"Average Fold-reduction in MIC, Chloramphenicol",[1]; MIC of chloramphenicol in A. baumannii,2 fold
same,"Average Fold-reduction in MIC, Clarithromycin",[1]; MIC of clarithromycin in A. baumannii,384 fold
same,"Average Fold-reduction in MIC, Doxycycline",[1]; MIC of doxycycline in A. baumannii,4 fold
same,"Average Fold-reduction in MIC, Erythromycin",[1]; MIC of erythromycin in A. baumannii,32 fold
same,"Average Fold-reduction in MIC, Fusidic Acid",[1]; MIC of fusidic acid in A. baumannii,341.33 fold
same,"Average Fold-reduction in MIC, Linezolid",[1]; MIC of linezolid in A. baumannii,8 fold
same,"Average Fold-reduction in MIC, Meropenem",[1]; MIC of meropenem in A. baumannii,4 fold
same,"Average Fold-reduction in MIC, Mupirocin",[1]; MIC of mupirocin in A. baumannii,4 fold
same,"Average Fold-reduction in MIC, Nafcillin",[1]; MIC of nafcillin in A. baumannii,1.5 fold
same,"Average Fold-reduction in MIC, Nalidixic Acid",[1]; MIC of nalidixic acid in A. baumannii,4 fold
same,"Average Fold-reduction in MIC, Novobiocin",[1]; MIC of novobiocin in A. baumannii,512 fold
same,"Average Fold-reduction in MIC, Oxacillin",[1]; MIC of oxacillin in A. baumannii,1 fold
same,"Average Fold-reduction in MIC, Rifampicin",[1]; MIC of rifampicin in A. baumannii,384 fold
same,"Average Fold-reduction in MIC, Rifaximin",[1]; MIC of rifaximin in A. baumannii,256 fold
same,"Average Fold-reduction in MIC, Roxithromycin",[1]; MIC of roxithromycin in A. baumannii,341.33 fold
same,"Average Fold-reduction in MIC, Thiostrepton",[1]; MIC of thiostrepton in A. baumannii,170.67 fold
same,"Average Fold-reduction in MIC, Trimethoprim",[1]; MIC of trimethoprim in A. baumannii,5.33 fold
same,"Average Fold-reduction in MIC, Vancomycin",[1]; MIC of vancomycin in A. baumannii,4 fold
same,FICI with novobiocin in presence of 20 mM Mg2+,[2]; 20 mM Mg2+ added to growth media,0.56
same,FICI AB,[2]; with novobiocin,0.094
same,"LPS Displacement (EC50, μg/mL)",[3],87.21 µg/mL
same,AUC(0-inf),[4],55.3 ng·h/mL
same,AUC(0-t),[4],51.6 ng·h/mL
same,C0,[4],238 ng/mL
same,MRT inf,[4],1.85 h
same,MRT last,[4],1.24 h
same,Vd,[4],33.4 L/kg
same,clearance,[4],301 mL/min/kg
same,half-life,[4],1.61 h
same,thermodynamic solubility,[5],182 µM
same,"Phospholipidosis MR, percentage in brackets",[6],104%
same,FICI with novobiocin against K. pneumoniae expressing mcr-1,[7],0.12
same,half-life,[8],91.6 min
same,Reduction in blood CFU/mL in combination with novobiocin,"[9]; 10 mg/kg + 50 mg/kg novobiocin, 6 h post-infection",3.05 log10
same,Animals rescued in combination with novobiocin,"[9]; 10 mg/kg analog + 50 mg/kg novobiocin i.p. 2 h post-infection, endpoint 5 days",100%
same,"Impact on blood CFU/mL, treatment alone","[9]; alone, 6 h post-infection, compared to control-treated animals",no significant impact
